Reference: article PMC7473772 (eLife, 2020)
Where “and” joins values, the source holds several entries; their conditions need not be identical. Equal values may be shown once. Where a name gives a salt, the structure may show the parent alone. Read-outs that look alike come from different tables or passages of the source.

Tests used:
[1] = molecular target: TbAQP2/HAPT1 (Trypanosoma brucei brucei, UniProt Q6ZXT3); test: cell-based; format: cell-based
[2] = system: tbaqp2 null (AQP2-KO); test: Drug sensitivity assay (resazurin); format: cell-based; conditions: Trypanosoma brucei, read-out: EC50 AQP2-KO AVG, AQP2-KO / tbaqp2 null; 48 h drug + 24 h resazurin
[3] = system: T. b. brucei 2T1; test: Drug sensitivity assay (resazurin); format: cell-based; conditions: Trypanosoma brucei, 48 h drug + 24 h resazurin, read-out: EC50 control 2T1 AVG
Procedure: The tbaqp2/tbaqp3 null cells ([Baker et al., 2012]) and tbaqp1-2-3 null cells ([Jeacock et al., 2017]) (both obtained from David Horn, University of Dundee, UK) are derived from the 2T1 strain of T. b. brucei ([Alsford and Horn, 2008]). The CRK12 RNAi cell line^28 was obtained from Dr Tansy Hammarton (University of Glasgow, UK) and is also based on the 2T1 cell line; RNAi expression was induced with 1 µg/ml tetracycline in the medium. All experiments were performed with bloodstream form trypanosomes grown in vitro in HMI-11 medium as described ([Wallace et al., 2002]) at 37°C in a 5% CO2 atmosphere. Cultures were routinely maintained in 10 ml of this medium, being seeded at 5 × 10^4 cells/ml and passed to fresh medium at reaching approximately 3 × 10^6 cells/ml after 48 hr. For transport experiments 150 or 200 ml of culture was seeded at the same density in large flasks and incubated until the culture reached late-log phase.
Drug sensitivity assays for T. b. brucei bloodstream forms used the cell viability dye resazurin (Sigma) and were performed exactly as described ([Wallace et al., 2002]; [Bridges et al., 2007]) in 96-well plates with doubling dilutions of test compound, starting at 100 µM, over 2 rows of the plate (23 dilutions plus no-drug control). Incubation time with test compound was 48 hr (37°C/5% CO2), followed by an additional 24 hr in the presence of the dye.

[4] = system: T. b. brucei s427 WT (bloodstream forms); format: cell-based, Trypanosoma brucei brucei
[5] = system: s427WT bloodstream forms; format: cell-based, Trypanosoma brucei brucei; conditions: for 3H-penta: CCCP 20, gramicidin 10, Nigericin 20, NEM 1000, Control = 100
[6] = system: CRK12 RNAi cells; test: [3H]-suramin uptake after CRK12 RNAi induction (endocytosis defect); format: cell-based, Trypanosoma brucei

Chain of TbAQP2/HAPT1 (Q6ZXT3 whole entry): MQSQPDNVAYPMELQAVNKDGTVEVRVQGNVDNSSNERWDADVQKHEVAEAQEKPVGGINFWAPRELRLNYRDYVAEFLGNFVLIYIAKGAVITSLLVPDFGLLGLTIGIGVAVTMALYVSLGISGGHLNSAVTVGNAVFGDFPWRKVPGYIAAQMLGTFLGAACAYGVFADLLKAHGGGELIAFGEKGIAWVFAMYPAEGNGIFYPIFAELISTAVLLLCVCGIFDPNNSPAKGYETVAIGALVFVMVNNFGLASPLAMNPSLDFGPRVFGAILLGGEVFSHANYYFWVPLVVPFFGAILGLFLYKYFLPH

## COc1ccc(-c2ccc(-c3ccc(C(=N)N)cc3)o2)cc1 (as salt: hydrochloride) [DB607, 4-(5-(4-methoxyphenyl)furan-2-yl) benzimidamide hydrochloride]
other
  melting point: 250 to 252 °C (dec.)

## Cn1c(-c2ccc(-c3ccc(C(=N)N)cc3)o2)nc2ccccc21 (as salt: hydrochloride) [DB960, 4-(5-(1-methyl-1H-benzo[d]imidazol-2-yl)furan-2-yl) benzimidamide dihydrochloride]
other
  melting point: > 290 °C (dec.)

## Cl.N=C(N)c1ccc(OCCCCOc2ccccc2)cc1.O (hydrate or solvate) [CHI/1/69/1, 4-(4-Phenoxybutoxy)benzimidamide hydrochloride hydrate]
other
  melting point: 134 to 135 °C

## Cl.Cl.N=C(N)c1ccc(OCCOc2ccc(C(=N)N)cc2)cc1.O.O (hydrate or solvate) [Ethamidine, 4,4'-(ethane-1,2-diylbis(oxy))dibenzimidamide dihydrochloride dihydrate]
other
  melting point: 333 °C

## Cc1ccc(OCCCCCOc2ccc(C(=N)N)cc2)cc1 [CHI/1/72/1, 4-(5-(p-tolyloxy)pentyyloxy)benzimidamide hydrochloride hydrate]
[1]
  ΔG0: -7.62 kcal/mol
  δ(ΔG^0) PMD: 2.56 kcal/mol
[1]; HAPT Ki AVG
  Ki: 2600 nM
[1]; HAPT Ki, AVG
  Ki: 2620 nM
[2]
  EC50: 2640 nM
[3]
  EC50: 3230 nM

## N=C(N)c1ccc(-c2ccc(-c3ccc(C(=N)N)cc3)o2)cc1 [DB75]
[1]
  ΔG0: -6.02 kcal/mol
  δ(ΔG^0) PMD: 4.13 kcal/mol
[1]; HAPT Ki AVG
  Ki: 38300 nM
[1]; Ki
  Ki: 38200 ± 10200 nM
[2]
  EC50: 20 nM
[3]
  EC50: 50 nM

## Cl.Cl.c1cc(-c2ccc(-c3ccc(CCC4=NCCN4)cc3)s2)ccc1CCC1=NCCN1 [DB1064, 2,5-bis(4-(2-(4,5-dihydro-1H-imidazol-2-yl)ethyl)phenyl) thiophene dihydrochloride]
[1]
  ΔG0: -7.53 kcal/mol
  δ(ΔG^0) PMD: 2.63 kcal/mol
[1]; Ki
  Ki: 3000 ± 820 nM
other
  melting point: > 225 °C (dec.)

## N=C(N)c1ccc(-c2ccc(-c3ccc(C(=N)N)cc3)[se]2)cc1 [DB1213]
[1]
  ΔG0: -8.39 kcal/mol
  δ(ΔG^0) PMD: 1.79 kcal/mol
[1]; Ki
  Ki: 720 ± 170 nM
[2]
  EC50: 78 nM
[3]
  EC50: 142 nM

## CCN1C(=O)C=CC1=O [NEM, N-ethylmaleimide]
[4]
  PMF: -39.3
[5]; NEM 1000, AVG
  pentamidine uptake: 60.1 percentage of the uninhibited control
[5]; NEM 1000, single repeats
  pentamidine uptake: 56.77 percentage of the uninhibited control and 56.26 percentage of the uninhibited control and 67.13 percentage of the uninhibited control

## CNC(=N)c1ccc(OCCCCCOc2ccc(C(=N)NC)cc2)cc1 [RT-30]
[1]
  ΔG0: -8.89 kcal/mol
  δ(ΔG^0) PMD: 1.27 kcal/mol
[1]; Ki
  Ki: 300 ± 70 nM
[2]
  EC50: 800 nM
[3]
  EC50: 590 nM

## c1cc(C2=NCCN2)ccc1OCCCCCOc1ccc(C2=NCCN2)cc1 [RT-32]
[1]
  ΔG0: -8.72 kcal/mol
  δ(ΔG^0) PMD: 1.43 kcal/mol
[1]; Ki
  Ki: 400 ± 80 nM
[2]
  EC50: 500 nM
[3]
  EC50: 400 nM

## N=C(N)c1ccc(OCCCCCOc2ccc(N)cc2)cc1 [RT-36]
[1]
  ΔG0: -8.68 kcal/mol
  δ(ΔG^0) PMD: 1.48 kcal/mol
[1]; Ki
  Ki: 430 ± 70 nM
[2]
  EC50: 23000 nM
[3]
  EC50: 25700 nM

## N=C(N)c1ccc(OCCCCCOc2ccc(C(=N)N)cc2Cl)c(Cl)c1 [RT-43]
[1]
  ΔG0: -8.58 kcal/mol
  δ(ΔG0): 1.59 kcal/mol
  δ(ΔG^0) PMD: 1.58 kcal/mol
[1]; Ki
  Ki: 510 ± 150 nM
[2]
  EC50: 235 nM
[3]
  EC50: 180 nM

## N=C(N)c1ccc(SCCCCCSc2ccc(C(=N)N)cc2)cc1 [RT-48]
[1]
  ΔG0: -7.77 kcal/mol
  δ(ΔG^0) PMD: 2.39 kcal/mol
[1]; Ki
  Ki: 2010 ± 860 nM
[2]
  EC50: 165 nM
[3]
  EC50: 24 nM

## N=C(N)c1ccc(NCCCCCNc2ccc(C(=N)N)cc2)cc1 [RT-50]
[1]
  ΔG0: -7.1 kcal/mol
  δ(ΔG^0) PMD: 3.08 kcal/mol
[1]; Ki
  Ki: 6270 ± 1300 nM
[2]
  EC50: 72 nM
[3]
  EC50: 4.1 nM

## N=C(N)c1ccc(OCCCCCOc2ccc(C(=N)N)cn2)nc1 [RT-52]
[1]
  ΔG0: -6.88 kcal/mol
  δ(ΔG^0) PMD: 3.27 kcal/mol
[1]; Ki
  Ki: 8840 ± 880 nM
[2]
  EC50: 51 nM
[3]
  EC50: 8.8 nM

## Cc1ccc(C(=O)Nc2ccc(S(=O)(=O)O)c3cc(S(=O)(=O)O)cc(S(=O)(=O)O)c23)cc1NC(=O)c1cccc(NC(=O)Nc2cccc(C(=O)Nc3cc(C(=O)Nc4ccc(S(=O)(=O)O)c5cc(S(=O)(=O)O)cc(S(=O)(=O)O)c45)ccc3C)c2)c1 [Suramin]
[6]; AVERAGE of the experiments
  suramin uptake rate, CRK+tet: 0.000346 pmol/1E7 cells/s-1
  suramin uptake rate, CRK-tet: 0.000523 pmol/1E7 cells/s-1
[6]; single experiments
  suramin uptake rate, CRK+tet: 0.0003125 pmol/1E7 cells/s-1 and 0.0002775 pmol/1E7 cells/s-1 and 0.0003952 pmol/1E7 cells/s-1 and 0.0004343 pmol/1E7 cells/s-1
  suramin uptake rate, CRK-tet: 0.0004923 pmol/1E7 cells/s-1 and 0.0003572 pmol/1E7 cells/s-1 and 0.000635 pmol/1E7 cells/s-1 and 0.0006387 pmol/1E7 cells/s-1
[6]; twelve hours after CRK12 RNAi induction
  Reduction of [3H]-suramin uptake: 33%

## CO[C@@H]1C[C@@H](C[C@H]2CC[C@H](C)[C@H]([C@@H](C)C(=O)O)O2)O[C@]2(O[C@](C)([C@H]3CC[C@@](C)([C@@H]4O[C@@H]([C@H]5O[C@@](O)(CO)[C@H](C)C[C@@H]5C)C[C@@H]4C)O3)C[C@H]2C)[C@@H]1C [nigericin]
[4]
  PMF: -46.9
[5]
  Effect of ionophore on pentamidine uptake: strongly inhibited
  3H-penta: 44.45
[5]; Nigericin 1, AVG
  pentamidine uptake: 109.4 percentage of the uninhibited control
[5]; Nigericin 1, single repeats
  pentamidine uptake: 108 percentage of the uninhibited control and 110.7 percentage of the uninhibited control
[5]; Nigericin 5, AVG
  pentamidine uptake: 76.8 percentage of the uninhibited control
[5]; Nigericin 10, AVG
  pentamidine uptake: 61.2 percentage of the uninhibited control
[5]; Nigericin 10, single repeats
  pentamidine uptake: 63.9 percentage of the uninhibited control and 61 percentage of the uninhibited control and 53.2 percentage of the uninhibited control and 66.7 percentage of the uninhibited control
[5]; Nigericin 20, AVG
  pentamidine uptake: 44.5 percentage of the uninhibited control
[5]; Nigericin 20, single repeats
  pentamidine uptake: 41.7 percentage of the uninhibited control and 44.5 percentage of the uninhibited control and 42.9 percentage of the uninhibited control and 48.7 percentage of the uninhibited control

## gramicidin
[4]; CCCP 20, gramicidin 10, Nigericin 20, NEM 1000, Control -95.4
  PMF: -13.1
[5]; 25 nM [3H]-pentamidine, 1 mM adenosine, 3 min pre-incubation
  Effect of ionophore on pentamidine uptake: strongly inhibited
[5]
  3H-penta: 5.87
[5]; Gramicidin 1, AVG
  pentamidine uptake: 23.3 percentage of the uninhibited control
[5]; Gramicidin 5, AVG
  pentamidine uptake: 3.7 percentage of the uninhibited control
[5]; Gramicidin 10, AVG
  pentamidine uptake: 5.9 percentage of the uninhibited control
